Test results taken from US12649750B2, “Macrocyclic compounds, compositions, and methods of using thereof” (Sionna Therapeutics Inc., priority 2022, dated 2026).

What was measured:
NBD1 = biological target: T1, NBD1 (Homo sapiens, UniProt P13569); assay: Aggregation analysis using differential static light scattering (DSLS), thermal stability of NBD1 (ΔTagg); format: binding; details: ΔTagg versus DMSO control, NBD1 0.2 mg/ml
T1 construct: Purified recombinant NBD1 was produced using previously described methods; made in house
T1 sequence (P13569 423-646 limits assumed): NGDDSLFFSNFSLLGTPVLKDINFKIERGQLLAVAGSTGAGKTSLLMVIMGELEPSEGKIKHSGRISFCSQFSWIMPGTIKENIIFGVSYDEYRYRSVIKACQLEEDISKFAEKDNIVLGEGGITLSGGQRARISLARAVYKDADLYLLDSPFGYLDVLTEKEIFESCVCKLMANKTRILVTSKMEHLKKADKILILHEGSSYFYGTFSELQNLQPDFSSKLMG
Procedure, shortened: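 Stabilisation is measured as the shift in aggregation onset of recombinant NBD1 (0.2 mg/ml, 2 mM ATP, 5 mM MgCl2, pH7.6) exposed to compound. Images are taken every 0.5° C. while heating at 1° C. per minute, and the inflection-point Tagg is corrected by the DMSO mean.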

CFTR = biological target: T2, CFTR (Homo sapiens, UniProt P13569, DEL508-508); assay: TECC24 AUC fold over DMSO @10 μM, CFTR-mediated transepithelial chloride transport in CF-HBE cells; format: cell-based; details: test agent AUC divided by DMSO vehicle AUC, primary CF-HBE cells, ΔF508 homozygous donor, 48 hours incubation
T2 construct: Primary human bronchial epithelial cells from a ΔF508 homozygous CF donor; host or cells: primary human bronchial epithelial cells (CF-HBE), ΔF508 homozygous donor
T2 sequence (P13569 with tags, fused parts or gaps DEL508-508): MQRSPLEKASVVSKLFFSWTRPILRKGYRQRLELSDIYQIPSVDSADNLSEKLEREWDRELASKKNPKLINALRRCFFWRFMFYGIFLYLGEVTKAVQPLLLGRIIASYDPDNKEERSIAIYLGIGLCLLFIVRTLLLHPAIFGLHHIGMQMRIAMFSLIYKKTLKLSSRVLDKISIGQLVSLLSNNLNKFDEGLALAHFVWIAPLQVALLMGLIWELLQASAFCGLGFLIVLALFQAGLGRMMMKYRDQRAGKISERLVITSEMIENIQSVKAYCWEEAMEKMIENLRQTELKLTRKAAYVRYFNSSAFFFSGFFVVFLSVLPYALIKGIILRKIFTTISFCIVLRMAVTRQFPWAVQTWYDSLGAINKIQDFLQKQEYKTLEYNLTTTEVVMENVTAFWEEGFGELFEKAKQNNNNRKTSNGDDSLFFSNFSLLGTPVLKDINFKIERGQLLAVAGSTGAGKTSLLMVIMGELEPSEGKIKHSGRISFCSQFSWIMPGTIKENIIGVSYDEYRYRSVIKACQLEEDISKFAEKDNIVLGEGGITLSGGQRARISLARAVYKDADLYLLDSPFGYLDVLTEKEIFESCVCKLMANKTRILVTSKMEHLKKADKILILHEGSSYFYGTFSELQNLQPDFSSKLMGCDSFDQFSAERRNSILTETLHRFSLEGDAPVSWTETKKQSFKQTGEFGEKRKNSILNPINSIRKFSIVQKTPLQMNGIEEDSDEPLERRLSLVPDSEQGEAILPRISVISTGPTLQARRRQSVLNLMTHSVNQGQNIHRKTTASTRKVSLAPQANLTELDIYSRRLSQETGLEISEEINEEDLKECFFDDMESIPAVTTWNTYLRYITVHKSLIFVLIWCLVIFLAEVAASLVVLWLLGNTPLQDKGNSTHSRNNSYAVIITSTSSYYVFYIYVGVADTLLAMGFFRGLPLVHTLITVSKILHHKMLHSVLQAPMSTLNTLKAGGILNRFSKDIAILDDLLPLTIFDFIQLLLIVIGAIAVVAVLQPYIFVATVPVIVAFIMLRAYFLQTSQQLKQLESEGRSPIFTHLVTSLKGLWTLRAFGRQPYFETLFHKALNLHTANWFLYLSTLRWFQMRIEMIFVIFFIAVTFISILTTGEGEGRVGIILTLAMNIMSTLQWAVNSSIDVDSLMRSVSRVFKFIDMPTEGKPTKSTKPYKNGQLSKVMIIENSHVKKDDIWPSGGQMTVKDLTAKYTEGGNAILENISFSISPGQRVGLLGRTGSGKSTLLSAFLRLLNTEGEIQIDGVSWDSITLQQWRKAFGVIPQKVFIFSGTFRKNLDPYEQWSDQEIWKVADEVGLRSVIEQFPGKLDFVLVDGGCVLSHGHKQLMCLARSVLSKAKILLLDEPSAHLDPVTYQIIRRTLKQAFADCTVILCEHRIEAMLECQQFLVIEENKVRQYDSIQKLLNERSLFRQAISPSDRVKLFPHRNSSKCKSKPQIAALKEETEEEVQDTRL
Procedure, shortened: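 ΔF508-homozygous primary bronchial epithelial cells incubated 48 h at 36.5° C with compound (10 μM) in IL-13-containing medium, then TECC24 current-clamp recording in pH 7.4 Hepes saline with benzamil 10 μM, forskolin 10 μM, then CFTR inhibitor-172 20 μM. Equivalent Cl− current AUC between forskolin and inhibitor, expressed as fold over DMSO.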

Row | Structure (SMILES) | DSLS 3D (100 μM ΔT) (NBD1) | TECC (AUC, 10 μM) (CFTR)
1 | CC1(C)CCCC(C)(c2cccc(CCC(=O)O)c2)c2nc(n[nH]2)-c2cc(ccc2F)Oc2c(F)cc3[nH]ccc3c2CCS(=O)(=O)C1 (single isomer, unassigned) [Compound 63B, 3-[3-(22,28-difluoro-6,10,10-trimethyl-12,12-dioxo-24-oxa-12λ6-thia-3,4,19,30-tetrazapentacyclo[23.3.1.12,5.015,23.016,20]triaconta-1(29),2,5(30),15,17,20,22,25,27-nonaen-6-yl)phenyl]propanoic Acid] | C (a value greater than 10 °C and less than or equal to 25 °C is marked “C”) | C (a value between 20 and 80 is marked “C”)
2 | Cc1cnn2c1-c1cc(ccc1F)Oc1c(F)cc3[nH]ccc3c1CCS(=O)(=O)CC(C)(C)CCCC2c1cccc(CCC(=O)O)c1 (single isomer, unassigned) [Compound 65A, 3-[3-(23,29-Difluoro-3,11,11-trimethyl-13,13-dioxo-25-oxa-13λ6-thia-5,6,20-triazapentacyclo[24.3.1.02,6.016,24.017,21]triaconta-1(30),2,4,16,18,21,23,26,28-nonaen-7-yl)phenyl]propanoic acid] | B (a value above 5 °C and less than or equal to 10 °C is marked “B”) | A (a TECC value less than 12 is marked “A”)
3 | Cc1cnn2c1-c1cc(ccc1F)Oc1c(F)cc3[nH]ccc3c1CCS(=O)(=O)CC(C)(C)CCCC2c1cccc(CCC(=O)O)c1 (single isomer, unassigned) [Compound 65B, 3-[3-(23,29-Difluoro-3,11,11-trimethyl-13,13-dioxo-25-oxa-13λ6-thia-5,6,20-triazapentacyclo[24.3.1.02,6.016,24.017,21]triaconta-1(30),2,4,16,18,21,23,26,28-nonaen-7-yl)phenyl]propanoic acid] | C (a value greater than 10 °C and less than or equal to 25 °C is marked “C”) | A (a TECC value less than 12 is marked “A”)
4 | CC(CC(=O)O)c1cccc(C2(C)CCOC(C)(C)CS(=O)(=O)CCc3c(c(F)cc4[nH]ccc34)Oc3ccc(F)c(c3)-c3nc2nn3C)c1 (single isomer, unassigned) [Compound 72A, 3-[3-(22,28-difluoro-3,6,10,10-tetramethyl-12,12-dioxo-9,24-dioxa-12lambda6-thia-3,4,19,30-tetrazapentacyclo-[23.3.1.12,5.015,23.016,20]triaconta-1(29),2(30),4,15,17,20,22,25,27-nonaen-6-yl)phenyl]-butanoic Acid] | C (a value greater than 10 °C and less than or equal to 25 °C is marked “C”) | A (a TECC value less than 12 is marked “A”)
5 | CC(CC(=O)O)c1cccc(C2(C)CCOC(C)(C)CS(=O)(=O)CCc3c(c(F)cc4[nH]ccc34)Oc3ccc(F)c(c3)-c3nc2nn3C)c1 (single isomer, unassigned) [Compound 72B, 3-[3-(22,28-difluoro-3,6,10,10-tetramethyl-12,12-dioxo-9,24-dioxa-12lambda6-thia-3,4,19,30-tetrazapentacyclo-[23.3.1.12,5.015,23.016,20]triaconta-1(29),2(30),4,15,17,20,22,25,27-nonaen-6-yl)phenyl]-butanoic Acid] | A (an ΔTagg value less than or equal to 5 °C is marked “A”) | A (a TECC value less than 12 is marked “A”)
6 | Cn1nc2nc1-c1cc(ccc1F)Oc1c(F)cc3[nH]ccc3c1CCS(=O)(=O)CC(C)(C)OCCC2(C)c1cccc(CCC(=O)O)c1 (single isomer, unassigned) [Compound 73A, 3-[3-(22,28-difluoro-3,6,10,10-tetramethyl-12,12-dioxo-9,24-dioxa-12lambda6-thia-3,4,19,30-tetrazapentacyclo-[23.3.1.12,5.015,23.016,20]triaconta-1(29),2(30),4,15,17,20,22,25,27-nonaen-6-yl)phenyl]-propanoic Acid] | C (a value greater than 10 °C and less than or equal to 25 °C is marked “C”) | A (a TECC value less than 12 is marked “A”)
7 | Cn1nc2nc1-c1cc(ccc1F)Oc1c(F)cc3[nH]ccc3c1CCS(=O)(=O)CC(C)(C)OCCC2(C)c1cccc(CCC(=O)O)c1 (single isomer, unassigned) [Compound 73B, 3-[3-(22,28-difluoro-3,6,10,10-tetramethyl-12,12-dioxo-9,24-dioxa-12lambda6-thia-3,4,19,30-tetrazapentacyclo-[23.3.1.12,5.015,23.016,20]triaconta-1(29),2(30),4,15,17,20,22,25,27-nonaen-6-yl)phenyl]-propanoic Acid] | A (an ΔTagg value less than or equal to 5 °C is marked “A”) | B (a value between 12-20 is marked “B”)
8 | CC(CC(=O)O)c1cccc(C2(C)CCCC(C)(C)CS(=O)(=O)CCc3c(c(F)cc4[nH]ccc34)Oc3ccc(F)c(c3)-c3nc2nn3C)c1 (single isomer, unassigned) [Compound 79A, 3-[3-(22,28-difluoro-3,6,10,10-tetramethyl-12,12-dioxo-24-oxa-12lambda6-thia-3,4,19,30-tetrazapentacyclo[23.3.1.12,5.015,23.016,20]triaconta-1(29),2(30),4,15,17,20,22,25,27-nonaen-6-yl)phenyl]butanoic Acid] | C (a value greater than 10 °C and less than or equal to 25 °C is marked “C”) | C (a value between 20 and 80 is marked “C”)
9 | CC(CC(=O)O)c1cccc(C2(C)CCCC(C)(C)CS(=O)(=O)CCc3c(c(F)cc4[nH]ccc34)Oc3ccc(F)c(c3)-c3nc2nn3C)c1 (single isomer, unassigned) [Compound 79B, 3-[3-(22,28-difluoro-3,6,10,10-tetramethyl-12,12-dioxo-24-oxa-12lambda6-thia-3,4,19,30-tetrazapentacyclo[23.3.1.12,5.015,23.016,20]triaconta-1(29),2(30),4,15,17,20,22,25,27-nonaen-6-yl)phenyl]butanoic Acid] | B (a value above 5 °C and less than or equal to 10 °C is marked “B”) | A (a TECC value less than 12 is marked “A”)
10 | O=C(O)CCc1cccc(C2NC(=O)CCCS(=O)(=O)CCc3c(c(F)cc4[nH]ccc34)Oc3ccc(F)c(c3)-c3ncc2[nH]3)c1 (single isomer, unassigned) [Compound 80, 3-[3-[22,28-difluoro-8,12,12-trioxo-24-oxa-12lambda6-thia-3,7,19,30-tetrazapentacyclo[23.3.1.12,5.015,23.016,20]triaconta-1(29),2,4,15,17,20,22,25,27-nonaen-6-yl]phenyl]propanoic acid] | B (a value above 5 °C and less than or equal to 10 °C is marked “B”) | A (a TECC value less than 12 is marked “A”)
11 | O=C1CCCS(=O)(=O)CCc2c(c(F)cc3[nH]ccc23)Oc2ccc(F)c(c2)-c2ncc([nH]2)C(c2ccccc2)N1 (single isomer, unassigned) [Compound 81, 22,28-difluoro-12,12-dioxo-6-phenyl-24-oxa-12lambda6-thia-3,7,19,30 tetrazapentacyclo[23.3.1.12,5.015,23.016,20]triaconta-1(29),2,4,15,17,20,22,25,27-nonaen-8-one] | A (an ΔTagg value less than or equal to 5 °C is marked “A”) | A (a TECC value less than 12 is marked “A”)
12 | O=C(O)CCc1cccc(C2NC(=O)CCCS(=O)(=O)CCc3c(c(F)cc4[nH]ccc34)Oc3ccc(F)c(c3)-c3ncc2[nH]3)c1 (single isomer, unassigned) [Compound 82, 3-[3-[22,28-difluoro-8,12,12-trioxo-24-oxa-12lambda6-thia-3,7,19,30-tetrazapentacyclo [23.3.1.12,5.015,23.016,20]-triaconta-1(29),2,4,15,17,20,22,25,27-nonaen-6-yl]phenyl]propanoic acid] | C (a value greater than 10 °C and less than or equal to 25 °C is marked “C”) | A (a TECC value less than 12 is marked “A”)
13 | O=C1CCCS(=O)(=O)CCc2c(c(F)cc3[nH]ccc23)Oc2ccc(F)c(c2)-c2ncc([nH]2)C(c2ccccc2)N1 (single isomer, unassigned) [Compound 83, 22,28-difluoro-12,12-dioxo-6-phenyl-24-oxa-12lambda6-thia-3,7,19,30-tetrazapentacyclo [23.3.1.12,5.015,23.016,20]-triaconta-1(29),2,4,15,17,20,22,25,27-nonaen-8-one] | B (a value above 5 °C and less than or equal to 10 °C is marked “B”) | A (a TECC value less than 12 is marked “A”)
14 | Cc1cn2nc1-c1cc(ccc1F)Oc1c(F)cc3[nH]ccc3c1CCS(=O)(=O)CC(C)(C)COCC2c1cccc(CCC(=O)O)c1 (single isomer, unassigned) [Compound 84B, 3-[3-(22,28-difluoro-3,10,10-trimethyl-12,12-dioxo-8,24-dioxa-12lambda6-thia-5,19,30-triazapentacyclo[23.3.1.12,5.015,23.016,20]triaconta-1(29),2(30),3,15,17,20,22,25,27-nonaen-6-yl)phenyl]propanoic acid] | A (an ΔTagg value less than or equal to 5 °C is marked “A”) | A (a TECC value less than 12 is marked “A”)
